Converted amounts (≈) assume the structure as drawn. The source made the active and inactive calls. The rule behind the calls is not given here.

One experiment has as its system A-431. Nature of the experiment: Cytotoxicity against human A431 cells. The experiment is classed as functional, cell-based.
The test system of the next experiment is CHO. Nature of the experiment: Cytotoxicity against CHO cells. The settings on record: Cricetulus griseus. The experiment is classed as cell-based.
Another experiment concerns MCF7. Nature of the experiment: Cytotoxicity against human MCF7 cells. The experiment is classed as functional, cell-based.
For a further experiment, the system named is A549. The experiment can be described thus: Cytotoxicity against human A549 cells. The experiment is classed as functional, cell-based.
A further experiment relates to COLO 205. Nature of the experiment: Cytotoxicity against human COLO205 cells. The experiment is classed as functional, cell-based.

Take `C=C1CC(=O)[C@H]2C(C)(C)CCC[C@]2(C)[C@H]1C/C=C1\CC(O)OC1=O` (stereo not given in full): the IC50 came out at 30.5 µg/mL (≈ 91.8 µM) in the experiment with A-431, 20.4 µg/mL (≈ 61.2 µM) with CHO, 49.3 µg/mL (≈ 148 µM) in the experiment on MCF7 and 27.6 µg/mL (≈ 82.9 µM) in the experiment on COLO 205. The result in the experiment with A549 was inactive.
`C=C1C[C@@H](O)[C@H]2C(C)(C)CCC[C@]2(C)[C@H]1/C=C/c1ccoc1` [YUNNACORONARIN A]: the IC50 in the experiment with A-431 was 29 µg/mL (≈ 96.6 µM); with CHO, 17.9 µg/mL (≈ 59.5 µM); in the experiment with MCF7, 28 µg/mL (≈ 93.4 µM); in the experiment with A549 it was 46.6 µg/mL (≈ 155 µM); in the experiment on COLO 205 it was 27.1 µg/mL (≈ 90.3 µM).
For `COc1cc(O)c2c(=O)cc(-c3ccccc3)oc2c1` [TECHTOCHRYSIN], the concentration for half-maximal inhibition (IC50) in the experiment on A-431 was 39 µg/mL (≈ 145 µM); in the experiment on CHO, 23.5 µg/mL (≈ 87.7 µM); in the experiment with MCF7, 51 µg/mL (≈ 190 µM); in the experiment with A549 it was 49.6 µg/mL (≈ 185 µM); in the experiment on COLO 205, 37.1 µg/mL (≈ 138 µM).
Taken in the same sequence, the figures for `CC1=CC(=O)[C@H]2C(C)(C)CCC[C@]2(C)[C@@]1(O)/C=C/c1ccoc1` were 26.1 µg/mL (≈ 83 µM), 15.7 µg/mL (≈ 49.9 µM), 30.9 µg/mL (≈ 98.4 µM), 41.2 µg/mL (≈ 131 µM) and 24 µg/mL (≈ 76.4 µM).
Taken in the same sequence, the figures for `CC1=C(O)C(=O)[C@H]2C(C)(C)CCC[C@]2(C)[C@H]1/C=C/C1=CC(=O)OC1` were 16 µg/mL (≈ 48.5 µM), 7.69 µg/mL (≈ 23.3 µM), 21.1 µg/mL (≈ 63.7 µM), 38 µg/mL (≈ 115 µM) and 12 µg/mL (≈ 36.4 µM).
The matching figures for `O=c1c(O)c(-c2ccccc2)oc2cc(O)cc(O)c12` [GALANGIN]: 39.4 µg/mL (≈ 146 µM), 27 µg/mL (≈ 99.8 µM), 53.1 µg/mL (≈ 196 µM), 54.2 µg/mL (≈ 201 µM) and 33.1 µg/mL (≈ 123 µM).
Take `C=C1[C@@H](O)C[C@H]2C(C)(C)CCC[C@]2(C)[C@H]1C/C=C1/CCOC1=O`: the IC50 in the experiment with A-431 came to 31.5 µg/mL (≈ 99 µM); in the experiment on CHO it was 21.3 µg/mL (≈ 67 µM); in the experiment with MCF7, 33.5 µg/mL (≈ 105 µM); in the experiment with COLO 205, 29.8 µg/mL (≈ 93.6 µM). Also, in the experiment with A549, the result was inactive.
